Measurements as given in US20100069249A1, “HERBICIDE COMBINATION COMPRISING DIMETHOXYTRIAZINYL-SUBSTITUTED DIFLUOROMETHANESULFONYLANILIDES” (BAYER CROPSCIENCE AG, priority 2008, published 2010).

Legend:
Assay in all cases: Post-emergence action against weeds, greenhouse pot test
Format in all cases: in vivo
Zea mays (ZEAMX) = test system: Zea mays (ZEAMX)
Experimental: (§1) Seeds or rhizome pieces of mono- and dicotyledonous harmful and useful plants were placed in peat pots (diameter 4 cm) filled with sandy loam and then covered with soil. The pots were kept in a greenhouse under optimum conditions. In addition, harmful plants encountered in paddy rice cultivation were cultivated in pots with a water level 2 cm above the soil surface.
(§2) About three weeks after the start of the cultivation, the test plants were treated at the 2- to 3-leaf stage. The herbicides, formulated as powder or liquid concentrates, were, either alone or in the combinations according to the invention, sprayed in various dosages on to the green parts of the plants using an application rate of 600 l of water/ha (converted). For further cultivation of the plants, the pots were then again kept under optimum conditions in a greenhouse.
(§3) The visual scoring of the herbicidal effects was carried out in intervals up to 21 days after the treatment. Scoring was carried out in percent in comparison to the untreated control plants. 0%=no herbicidal activity, 100%=complete herbicidal activity=complete kill.
(§4) The percentages from the treatments with the herbicides alone (=individual application) and with the combinations according to the invention (=mixtures) were employed to calculate interactions using the method of Colby. When the observed efficacies of the mixtures exceed the formal sum of the values of the tests with individual applications, they also exceed the expected value according to Colby, which is calculated using the formula below (cf. S. R. Colby; in Weeds 15 (1967) pp. 20 to 22):
(§5) • A, B=activity of components A and B in percent at a dosage of a and b g of ai/ha (=gram of active substance per hectare), respectively. • E=expected value in % at a dosage of a+b g of ai/ha.

[1] = test system: Triticum aestivum (TRZAS)
Experimental: as §1, §2, §3, §4, §5

Oryza sativa (ORYSA) = test system: Oryza sativa (ORYSA)
Experimental: as §1, §2, §3, §4, §5

[2] = test system: Fallopia (ex Polygonum) convolvulus (POLCO); settings: 21 DAT; B 50 g of ai/ha
Experimental: as §1
as §2, with “greenhouse. […]” for “greenhouse.”
as §4, with “22): […]” for “22):”

Setaria viridis (SETVI) = settings: 21 DAT; B 50 g of ai/ha
Experimental: as §1, §2, §3, §4, §5

[3] = test system: Matricaria inodora (MATIN); settings: 21 DAT; B 50 g of ai/ha
Experimental: as §1, §2, §3, §4, §5

[4] = test system: Alopecurus myosuroides (ALOMY); settings: 21 DAT
Experimental: as §1, §2, §3, §4, §5

Viola tricolor (VIOTR) = settings: 21 DAT; B 50 g of ai/ha
Experimental: as §1, §2, §3, §4, §5

SMILES	% activity found (Zea mays (ZEAMX); 21 DAT, A 4 g of ai/ha) [%]	% activity found ([1]; 21 DAT, A 12 g of ai/ha) [%]	% activity found (Oryza sativa (ORYSA); 10/21 DAT, A 4 g of ai/ha) [%]	% activity found [2] [%]	% activity found (Setaria viridis (SETVI)) [%]	% activity found (Zea mays (ZEAMX); 10 DAT, B 50 g of ai/ha) [%]	% activity found (Zea mays (ZEAMX); 10 DAT, B 150 g of ai/ha) [%]	% activity found (Zea mays (ZEAMX); 21 DAT, B 50 g of ai/ha) [%]	% activity found (Zea mays (ZEAMX); 21 DAT, B 150 g of ai/ha) [%]	% activity found ([1]; 10 DAT, B 50 g of ai/ha) [%]	% activity found ([1]; 10 DAT, B 150 g of ai/ha) [%]	% activity found ([1]; 21 DAT, B 50 g of ai/ha) [%]	% activity found [3] [%]	% activity found ([4]; B 50 g of ai/ha) [%]	% activity found ([4]; B 150 g of ai/ha) [%]	% activity found (Oryza sativa (ORYSA); 10/21 DAT, B 50 g of ai/ha) [%]	% activity found (Oryza sativa (ORYSA); 10/21 DAT, B 150 g of ai/ha) [%]	% activity found (Oryza sativa (ORYSA); 21 DAT, B 150 g of ai/ha) [%]	% activity found (Viola tricolor (VIOTR)) [%]
COc1nc(OC)nc(C(=O)c2cccc(F)c2N(C)S(=O)(=O)C(F)F)n1 [A-1]	0	0	0																
CP(=O)(O)CC[C@H](N)C(=O)O [B1-8, (2S)-2-amino-4-[hydroxy(methyl)phosphinyl]butanoic acid]				40	80	30	40	0	0	20	30	20	60	0	20	10	30	30	40
